Columns and labels:
[1] = molecular target: Muscarinic acetylcholine receptor M4 (Homo sapiens) (UniProt P08173); settings: Compound concentration 10.0 uM
Rattus norvegicus = species: Rattus norvegicus; settings: Compound concentration 10.0 uM
[2] = molecular target: 5-hydroxytryptamine receptor 2C (Homo sapiens) (UniProt P28335); settings: Compound concentration 10.0 uM
[3] = molecular target: T1, Serine/threonine-protein kinase BRSK2 (Homo sapiens) (UniProt Q8IWQ3); settings: Compound concentration 1.0 uM
T1 sequence (whole entry): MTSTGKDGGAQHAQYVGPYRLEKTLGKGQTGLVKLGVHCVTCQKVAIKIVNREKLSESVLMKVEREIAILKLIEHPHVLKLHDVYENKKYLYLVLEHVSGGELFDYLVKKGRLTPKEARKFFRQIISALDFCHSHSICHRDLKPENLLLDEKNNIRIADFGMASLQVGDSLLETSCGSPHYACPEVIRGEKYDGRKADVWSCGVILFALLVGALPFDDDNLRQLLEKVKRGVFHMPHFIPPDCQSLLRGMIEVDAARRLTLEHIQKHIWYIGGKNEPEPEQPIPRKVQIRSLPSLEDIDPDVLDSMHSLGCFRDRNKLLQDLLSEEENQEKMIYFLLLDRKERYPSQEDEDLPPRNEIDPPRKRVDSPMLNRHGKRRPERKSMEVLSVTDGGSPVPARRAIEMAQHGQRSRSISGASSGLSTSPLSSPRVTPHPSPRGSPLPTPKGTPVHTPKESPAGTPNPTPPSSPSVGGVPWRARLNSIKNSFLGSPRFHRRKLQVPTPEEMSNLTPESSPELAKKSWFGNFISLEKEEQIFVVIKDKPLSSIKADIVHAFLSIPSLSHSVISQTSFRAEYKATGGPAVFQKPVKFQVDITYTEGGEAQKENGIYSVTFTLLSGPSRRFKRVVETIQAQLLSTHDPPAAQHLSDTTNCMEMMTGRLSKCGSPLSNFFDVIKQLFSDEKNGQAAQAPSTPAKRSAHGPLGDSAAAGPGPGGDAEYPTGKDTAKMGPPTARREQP

[4] = molecular target: Casein kinase I isoform gamma-2 (Homo sapiens) (UniProt P78368); settings: Compound concentration 1.0 uM
Chain of Casein kinase I isoform gamma-2 (Homo sapiens) (P78368 whole entry, looked up, canonical isoform): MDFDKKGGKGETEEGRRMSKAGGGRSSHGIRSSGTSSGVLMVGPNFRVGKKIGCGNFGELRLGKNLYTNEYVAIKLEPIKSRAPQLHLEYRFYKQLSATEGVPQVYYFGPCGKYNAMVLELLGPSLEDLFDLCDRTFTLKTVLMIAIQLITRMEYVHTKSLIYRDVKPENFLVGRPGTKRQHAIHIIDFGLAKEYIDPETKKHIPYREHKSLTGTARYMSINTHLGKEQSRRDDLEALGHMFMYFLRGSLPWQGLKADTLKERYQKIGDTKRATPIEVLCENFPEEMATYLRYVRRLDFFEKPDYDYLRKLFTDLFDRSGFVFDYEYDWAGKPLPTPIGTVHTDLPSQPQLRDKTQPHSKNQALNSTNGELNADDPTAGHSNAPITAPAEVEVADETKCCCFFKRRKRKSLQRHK

[5] = molecular target: T2, Ephrin type-B receptor 4 (Homo sapiens) (UniProt P54760); settings: Compound concentration 1.0 uM
T2 sequence (whole entry): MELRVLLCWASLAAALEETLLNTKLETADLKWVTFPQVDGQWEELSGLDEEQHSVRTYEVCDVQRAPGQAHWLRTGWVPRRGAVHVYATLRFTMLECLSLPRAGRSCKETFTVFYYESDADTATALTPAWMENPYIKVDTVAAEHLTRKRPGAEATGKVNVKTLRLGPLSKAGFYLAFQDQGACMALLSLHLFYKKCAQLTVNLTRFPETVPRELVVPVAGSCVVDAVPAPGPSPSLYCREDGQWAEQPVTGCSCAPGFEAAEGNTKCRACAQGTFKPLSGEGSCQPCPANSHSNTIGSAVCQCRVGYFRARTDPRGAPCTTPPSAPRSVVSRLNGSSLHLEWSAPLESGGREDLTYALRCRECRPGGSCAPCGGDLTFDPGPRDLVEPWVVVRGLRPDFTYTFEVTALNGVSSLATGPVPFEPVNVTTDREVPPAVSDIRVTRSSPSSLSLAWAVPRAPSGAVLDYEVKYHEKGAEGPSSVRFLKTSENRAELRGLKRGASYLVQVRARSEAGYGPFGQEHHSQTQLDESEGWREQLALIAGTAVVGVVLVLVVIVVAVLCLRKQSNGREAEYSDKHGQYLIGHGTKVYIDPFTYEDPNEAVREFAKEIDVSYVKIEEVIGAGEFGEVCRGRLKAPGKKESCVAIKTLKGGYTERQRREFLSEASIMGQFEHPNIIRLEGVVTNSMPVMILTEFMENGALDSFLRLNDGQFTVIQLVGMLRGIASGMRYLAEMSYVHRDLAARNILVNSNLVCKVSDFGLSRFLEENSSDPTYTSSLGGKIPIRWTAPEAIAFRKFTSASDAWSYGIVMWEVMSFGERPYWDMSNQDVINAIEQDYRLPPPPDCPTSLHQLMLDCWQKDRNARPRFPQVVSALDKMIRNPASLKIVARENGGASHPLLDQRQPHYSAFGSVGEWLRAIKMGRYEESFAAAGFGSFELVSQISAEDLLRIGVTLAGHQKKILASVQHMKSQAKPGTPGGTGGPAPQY

[6] = molecular target: LIM domain kinase 1 (Homo sapiens) (UniProt P53667); settings: Compound concentration 1.0 uM
Chain of LIM domain kinase 1 (Homo sapiens) (P53667 whole entry, looked up, the tested form may be a part): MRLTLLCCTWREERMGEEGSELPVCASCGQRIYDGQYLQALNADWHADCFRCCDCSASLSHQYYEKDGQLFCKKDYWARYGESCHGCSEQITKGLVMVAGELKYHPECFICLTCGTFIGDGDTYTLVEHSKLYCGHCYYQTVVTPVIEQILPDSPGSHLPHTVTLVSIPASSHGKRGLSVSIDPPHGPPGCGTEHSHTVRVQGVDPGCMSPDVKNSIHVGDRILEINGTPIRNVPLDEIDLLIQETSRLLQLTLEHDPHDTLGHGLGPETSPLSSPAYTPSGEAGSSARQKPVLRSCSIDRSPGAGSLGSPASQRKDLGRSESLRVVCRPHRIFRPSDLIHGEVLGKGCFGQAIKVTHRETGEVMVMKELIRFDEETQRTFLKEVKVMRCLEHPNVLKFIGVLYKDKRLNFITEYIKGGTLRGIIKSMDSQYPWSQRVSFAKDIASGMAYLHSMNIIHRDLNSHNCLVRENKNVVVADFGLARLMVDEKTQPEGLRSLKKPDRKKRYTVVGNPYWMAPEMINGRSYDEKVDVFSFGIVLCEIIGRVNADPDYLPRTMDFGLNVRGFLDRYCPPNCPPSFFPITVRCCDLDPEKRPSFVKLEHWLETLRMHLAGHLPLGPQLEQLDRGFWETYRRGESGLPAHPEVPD

[7] = molecular target: Serine/threonine-protein kinase MARK1 (Homo sapiens) (UniProt Q9P0L2); settings: Compound concentration 1.0 uM
Chain of Serine/threonine-protein kinase MARK1 (Homo sapiens) (Q9P0L2 whole entry, looked up): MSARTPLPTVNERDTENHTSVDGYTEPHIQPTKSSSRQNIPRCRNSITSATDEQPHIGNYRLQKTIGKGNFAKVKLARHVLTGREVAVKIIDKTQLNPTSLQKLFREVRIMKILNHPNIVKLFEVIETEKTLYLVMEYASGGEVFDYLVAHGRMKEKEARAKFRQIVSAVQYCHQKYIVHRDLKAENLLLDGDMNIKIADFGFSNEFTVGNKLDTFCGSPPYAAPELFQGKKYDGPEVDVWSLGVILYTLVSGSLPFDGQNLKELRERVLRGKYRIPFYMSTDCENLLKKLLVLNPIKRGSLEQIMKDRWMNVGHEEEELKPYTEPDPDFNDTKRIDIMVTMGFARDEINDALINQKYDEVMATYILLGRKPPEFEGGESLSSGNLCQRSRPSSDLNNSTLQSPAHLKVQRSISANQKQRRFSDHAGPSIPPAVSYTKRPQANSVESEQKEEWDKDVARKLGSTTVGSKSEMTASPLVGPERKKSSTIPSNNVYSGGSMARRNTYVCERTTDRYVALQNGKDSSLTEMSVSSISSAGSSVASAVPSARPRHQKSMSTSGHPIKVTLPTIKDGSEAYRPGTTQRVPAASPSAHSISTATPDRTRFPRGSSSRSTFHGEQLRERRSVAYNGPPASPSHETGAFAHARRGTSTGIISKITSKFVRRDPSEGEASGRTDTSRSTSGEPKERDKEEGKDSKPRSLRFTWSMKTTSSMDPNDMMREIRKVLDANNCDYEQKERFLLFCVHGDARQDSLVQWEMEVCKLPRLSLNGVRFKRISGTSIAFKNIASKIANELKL

[8] = molecular target: Serine/threonine-protein kinase Nek7 (Homo sapiens) (UniProt Q8TDX7); settings: Compound concentration 1.0 uM
Chain of Serine/threonine-protein kinase Nek7 (Homo sapiens) (Q8TDX7 whole entry, looked up): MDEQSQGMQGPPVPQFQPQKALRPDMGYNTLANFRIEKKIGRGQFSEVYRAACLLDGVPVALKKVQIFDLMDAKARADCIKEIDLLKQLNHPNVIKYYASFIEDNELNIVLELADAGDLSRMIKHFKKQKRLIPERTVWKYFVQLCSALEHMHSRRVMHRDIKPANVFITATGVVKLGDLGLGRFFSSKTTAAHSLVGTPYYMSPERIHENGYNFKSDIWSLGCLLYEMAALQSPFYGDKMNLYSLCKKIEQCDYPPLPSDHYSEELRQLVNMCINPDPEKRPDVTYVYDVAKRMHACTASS

[9] = molecular target: T3, MAP kinase-activated protein kinase 5 (Homo sapiens) (UniProt Q8IW41); settings: Compound concentration 1.0 uM
T3 sequence (whole entry): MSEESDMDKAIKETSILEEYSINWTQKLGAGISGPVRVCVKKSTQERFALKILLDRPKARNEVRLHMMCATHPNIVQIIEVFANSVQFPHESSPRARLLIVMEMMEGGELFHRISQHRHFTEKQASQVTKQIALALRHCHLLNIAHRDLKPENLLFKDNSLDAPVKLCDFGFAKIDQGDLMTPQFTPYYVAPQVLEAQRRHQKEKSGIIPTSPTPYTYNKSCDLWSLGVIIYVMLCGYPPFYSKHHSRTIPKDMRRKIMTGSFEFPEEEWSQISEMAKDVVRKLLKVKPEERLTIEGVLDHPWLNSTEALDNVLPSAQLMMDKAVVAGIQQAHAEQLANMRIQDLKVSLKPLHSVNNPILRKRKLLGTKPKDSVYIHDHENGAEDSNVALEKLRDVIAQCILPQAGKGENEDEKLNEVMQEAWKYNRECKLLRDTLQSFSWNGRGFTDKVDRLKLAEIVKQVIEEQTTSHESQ

[10] = molecular target: Receptor-interacting serine/threonine-protein kinase 2 (Homo sapiens) (UniProt O43353); settings: Compound concentration 1.0 uM
Chain of Receptor-interacting serine/threonine-protein kinase 2 (Homo sapiens) (O43353 whole entry): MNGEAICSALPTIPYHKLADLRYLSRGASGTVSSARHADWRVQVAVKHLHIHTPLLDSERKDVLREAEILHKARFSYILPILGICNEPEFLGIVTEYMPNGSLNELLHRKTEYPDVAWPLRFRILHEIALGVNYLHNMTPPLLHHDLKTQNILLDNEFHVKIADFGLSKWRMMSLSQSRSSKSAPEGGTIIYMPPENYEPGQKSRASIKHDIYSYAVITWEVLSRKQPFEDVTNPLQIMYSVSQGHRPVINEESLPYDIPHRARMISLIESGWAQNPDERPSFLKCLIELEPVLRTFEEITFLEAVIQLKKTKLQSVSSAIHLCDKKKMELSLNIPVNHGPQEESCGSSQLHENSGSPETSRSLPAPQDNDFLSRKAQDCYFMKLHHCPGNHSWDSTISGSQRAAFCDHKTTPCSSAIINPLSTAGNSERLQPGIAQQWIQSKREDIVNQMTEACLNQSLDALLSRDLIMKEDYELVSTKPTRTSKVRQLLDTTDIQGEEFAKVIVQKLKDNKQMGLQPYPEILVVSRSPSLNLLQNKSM

[11] = molecular target: Macrophage-stimulating protein receptor (Homo sapiens) (UniProt Q04912); settings: Compound concentration 1.0 uM
Chain of Macrophage-stimulating protein receptor (Homo sapiens) (Q04912 25-304 limits assumed): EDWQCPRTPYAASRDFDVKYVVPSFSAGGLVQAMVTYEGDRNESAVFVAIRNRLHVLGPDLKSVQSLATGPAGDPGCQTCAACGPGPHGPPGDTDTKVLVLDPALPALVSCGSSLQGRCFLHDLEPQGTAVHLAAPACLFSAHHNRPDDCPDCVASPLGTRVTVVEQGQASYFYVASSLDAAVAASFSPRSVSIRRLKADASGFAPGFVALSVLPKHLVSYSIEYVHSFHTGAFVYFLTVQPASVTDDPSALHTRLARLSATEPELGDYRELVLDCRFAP
Chain of Macrophage-stimulating protein receptor (Homo sapiens) (Q04912 310-1400 limits assumed): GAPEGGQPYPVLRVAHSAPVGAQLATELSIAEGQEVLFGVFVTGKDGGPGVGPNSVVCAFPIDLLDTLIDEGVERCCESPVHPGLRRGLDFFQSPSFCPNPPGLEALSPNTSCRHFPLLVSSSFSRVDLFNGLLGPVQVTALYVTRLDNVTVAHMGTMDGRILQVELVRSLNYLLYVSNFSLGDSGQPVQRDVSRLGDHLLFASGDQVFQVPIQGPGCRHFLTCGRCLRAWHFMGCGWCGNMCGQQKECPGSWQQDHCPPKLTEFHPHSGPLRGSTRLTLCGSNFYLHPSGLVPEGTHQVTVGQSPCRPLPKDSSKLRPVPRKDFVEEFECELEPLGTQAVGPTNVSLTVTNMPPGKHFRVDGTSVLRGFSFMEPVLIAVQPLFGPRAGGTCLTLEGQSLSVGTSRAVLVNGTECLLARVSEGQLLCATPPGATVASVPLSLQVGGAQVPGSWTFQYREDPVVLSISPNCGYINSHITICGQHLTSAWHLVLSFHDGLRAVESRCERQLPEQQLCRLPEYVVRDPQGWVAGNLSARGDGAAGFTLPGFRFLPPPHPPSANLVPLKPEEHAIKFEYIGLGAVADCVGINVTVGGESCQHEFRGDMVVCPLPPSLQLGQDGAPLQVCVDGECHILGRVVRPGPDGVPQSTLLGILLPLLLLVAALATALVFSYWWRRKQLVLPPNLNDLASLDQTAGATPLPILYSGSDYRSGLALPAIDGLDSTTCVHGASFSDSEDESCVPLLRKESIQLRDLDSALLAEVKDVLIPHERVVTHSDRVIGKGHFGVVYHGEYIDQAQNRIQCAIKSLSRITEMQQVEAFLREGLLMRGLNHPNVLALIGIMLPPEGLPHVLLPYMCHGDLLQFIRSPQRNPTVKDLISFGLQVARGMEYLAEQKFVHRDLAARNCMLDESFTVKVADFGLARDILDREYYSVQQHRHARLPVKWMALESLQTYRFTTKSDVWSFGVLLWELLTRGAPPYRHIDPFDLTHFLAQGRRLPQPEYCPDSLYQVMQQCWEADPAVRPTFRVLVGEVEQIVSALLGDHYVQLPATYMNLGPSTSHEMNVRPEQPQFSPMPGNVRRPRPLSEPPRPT

Chain of 5-hydroxytryptamine receptor 2C (Homo sapiens) (P28335 whole entry): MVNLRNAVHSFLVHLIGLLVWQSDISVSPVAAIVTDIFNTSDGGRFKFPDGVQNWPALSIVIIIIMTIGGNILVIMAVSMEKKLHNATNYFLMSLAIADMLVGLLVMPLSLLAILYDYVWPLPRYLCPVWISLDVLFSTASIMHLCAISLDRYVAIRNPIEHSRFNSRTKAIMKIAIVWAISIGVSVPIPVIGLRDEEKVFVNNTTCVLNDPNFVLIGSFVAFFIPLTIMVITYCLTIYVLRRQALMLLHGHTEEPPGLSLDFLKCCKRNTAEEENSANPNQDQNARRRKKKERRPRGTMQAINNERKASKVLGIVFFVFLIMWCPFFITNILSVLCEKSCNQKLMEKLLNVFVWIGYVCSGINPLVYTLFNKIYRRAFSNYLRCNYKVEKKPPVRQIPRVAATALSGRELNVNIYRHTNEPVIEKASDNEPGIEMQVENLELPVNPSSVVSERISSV
Chain of Muscarinic acetylcholine receptor M4 (Homo sapiens) (P08173 whole entry): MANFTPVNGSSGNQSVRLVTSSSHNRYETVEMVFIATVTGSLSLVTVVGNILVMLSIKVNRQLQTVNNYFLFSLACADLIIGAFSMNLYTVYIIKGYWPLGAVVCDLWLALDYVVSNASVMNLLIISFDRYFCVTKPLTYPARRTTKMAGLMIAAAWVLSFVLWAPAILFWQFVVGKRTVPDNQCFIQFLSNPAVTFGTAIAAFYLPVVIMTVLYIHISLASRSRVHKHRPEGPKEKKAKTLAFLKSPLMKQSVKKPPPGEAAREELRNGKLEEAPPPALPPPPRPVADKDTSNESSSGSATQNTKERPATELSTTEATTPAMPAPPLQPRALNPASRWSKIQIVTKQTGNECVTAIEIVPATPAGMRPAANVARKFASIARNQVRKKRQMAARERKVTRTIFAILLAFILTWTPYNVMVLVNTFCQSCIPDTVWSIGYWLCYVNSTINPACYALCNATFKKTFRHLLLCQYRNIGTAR

Cc1nc(C2CCN(C(=O)c3ccc(OC(F)(F)F)cc3N)CC2)c2ncc(N3CCN(C)CC3)cc2n1 [BAY-693]
inactive: inhibition [1] -2.04% | inhibition (Rattus norvegicus) -4.32%

CN1CCN(c2cnc3c(C4CCN(C(=O)c5ccc(OC(F)(F)F)cc5N)CC4)ncnc3c2)CC1 [BAY-885]
inactive: inhibition [2] -4.77% | % residual kinase activity [3] 102% | % residual kinase activity [4] 91% | % residual kinase activity [5] 103% | % residual kinase activity [6] 93% | % residual kinase activity [7] 112% | % residual kinase activity [8] 106% | % residual kinase activity [9] 109% | % residual kinase activity [10] 101% | % residual kinase activity [11] 100%
